Legend:
[1] = system: normal NK cells expanded with K562-aAPC; assay: percent inhibition of viability; higher = more inhibition; settings: 72 h, IL-2 2.5 ng/mL
Description: (§1)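 Drug sensitivity and resistance testing on K562-aAPC-expanded normal NK cells: 5 concentrations (10-fold steps over a 10,000-fold range), 72 h at 37 °C, viability by CellTiter-Glo normalised to DMSO and benzethonium chloride controls; DSS from the fitted curve.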

DERL-7 (IL-2 2.5 ng/mL) [2] = assay: as above; settings: 72 h
IMC-1 (IL-2 20 ng/mL) [3] = assay: as above; settings: 72 h
KAI3 (IL-2 2.5 ng/mL) [4] = assay: as above; settings: 72 h
KHYG-1 (IL-2 2.5 ng/mL) [5] = assay: as above; settings: 72 h
NK-92 (IL-2 2.5 ng/mL) [6] = assay: as above; settings: 72 h
NK-YS (IL-2 2.5 ng/mL) [7] = assay: as above; settings: 72 h
NKL (IL-2 2.5 ng/mL) [8] = assay: as above; settings: 72 h
SNK-6 (IL-2 2.5 ng/mL) [9] = assay: as above; settings: 72 h
YT (IL-2 2.5 ng/mL) [10] = assay: as above; settings: 72 h
[11] = system: normal primary NK cells, pool 1 (3 donors) (IL-2 2.5 ng/mL); assay: as above; settings: 72 h
[12] = system: normal primary NK cells, pool 1 (3 donors), resting (IL-2 0 ng/mL); assay: as above; settings: 72 h
[13] = system: normal primary NK cells, pool 2 (3 donors) (IL-2 2.5 ng/mL); assay: as above; settings: 72 h
[14] = system: normal primary NK cells, pool 3 (3 donors) (IL-2 2.5 ng/mL); assay: as above; settings: 72 h
[15] = system: normal NK cells expanded with K562-aAPC; assay: drug sensitivity score (DSS) (DSS units); higher = more sensitive; extreme values may be limits of the assay; settings: 72 h; IL-2 2.5 ng/mL
Description: as §1

DERL-7 (IL-2 2.5 ng/mL) [16] = assay: as above; settings: 72 h
IMC-1 (IL-2 20 ng/mL) [17] = assay: as above; settings: 72 h
KAI3 (IL-2 2.5 ng/mL) [18] = assay: as above; settings: 72 h
KHYG-1 (IL-2 2.5 ng/mL) [19] = assay: as above; settings: 72 h
NK-92 (IL-2 2.5 ng/mL) [20] = assay: as above; settings: 72 h
NK-YS (IL-2 2.5 ng/mL) [21] = assay: as above; settings: 72 h
NKL (IL-2 2.5 ng/mL) [22] = assay: as above; settings: 72 h
SNK-6 (IL-2 2.5 ng/mL) [23] = assay: as above; settings: 72 h
YT (IL-2 2.5 ng/mL) [24] = assay: as above; settings: 72 h
[25] = system: normal primary NK cells, pool 1 (3 donors) (IL-2 2.5 ng/mL); assay: as above; settings: 72 h
[26] = system: normal primary NK cells, pool 1 (3 donors), resting (IL-2 0 ng/mL); assay: as above; settings: 72 h
[27] = system: normal primary NK cells, pool 2 (3 donors) (IL-2 2.5 ng/mL); assay: as above; settings: 72 h
[28] = system: normal primary NK cells, pool 3 (3 donors) (IL-2 2.5 ng/mL); assay: as above; settings: 72 h

CC[C@H](CC#N)OC(=O)N[C@@H](C)c1cccc(NC(=O)Nc2ccc(-c3cnco3)c(OC)c2)c1 [AVN944] (max concentration tested 10000 nM)
percent inhibition of viability [%]
Settings | 1 nM | 10 nM | 100 nM | 1000 nM | 10000 nM
DERL-7 (IL-2 2.5 ng/mL) [2] | 1.82 | -0.51 | 46.2 | 89.3 | 94.2
IMC-1 (IL-2 20 ng/mL) [3] | -3.38 | 0.07 | -49.7 | 74.7 | 93.8
KAI3 (IL-2 2.5 ng/mL) [4] | 3.06 | 5.82 | 42.7 | 101 | 97.7
KHYG-1 (IL-2 2.5 ng/mL) [5] | -0.31 | 1.95 | 46.9 | 96.4 | 96.2
NK-92 (IL-2 2.5 ng/mL) [6] | -6.77 | -7.92 | 21.9 | 101 | 94.4
NK-YS (IL-2 2.5 ng/mL) [7] | 1.24 | -1.29 | 45.5 | 94.6 | 94
NKL (IL-2 2.5 ng/mL) [8] | -10.6 | -12.7 | 32.8 | 81.2 | 72.3
SNK-6 (IL-2 2.5 ng/mL) [9] | 6.47 | 13.1 | 56.5 | 91 | 96.5
YT (IL-2 2.5 ng/mL) [10] | 1.64 | 0.89 | 25.8 | 83.2 | 83.1
[1] | -4.47 | -3.33 | 15.6 | 41.6 | 39.1
[11] | -6.01 | -11.6 | 1.98 | 6.68 | 27.3
[12] | -10.3 | -2.43 | 27.4 | 7.53 | 62.7
[13] | -12.8 | -4.58 | 1.01 | 5.56 | 16.6
[14] | -8.77 | -6.21 | 4.2 | 12.5 | 18.4

Settings | drug sensitivity score
DERL-7 (IL-2 2.5 ng/mL) [16] | 22.3
IMC-1 (IL-2 20 ng/mL) [17] | 13.5
KAI3 (IL-2 2.5 ng/mL) [18] | 23.1
KHYG-1 (IL-2 2.5 ng/mL) [19] | 23.1
NK-92 (IL-2 2.5 ng/mL) [20] | 21.5
NK-YS (IL-2 2.5 ng/mL) [21] | 22.9
NKL (IL-2 2.5 ng/mL) [22] | 19.2
SNK-6 (IL-2 2.5 ng/mL) [23] | 24.3
YT (IL-2 2.5 ng/mL) [24] | 18.9
[15] | 9.68
[25] | 2.1
[26] | 4.7
[27] | 0.8
[28] | 1.47

CC(C)Oc1cc(Nc2nc(N[C@@H](C)c3ccc(F)cn3)ncc2Cl)n[nH]1 [AZ-23] (max concentration tested 1000 nM)
percent inhibition of viability [%]
Settings | 0.1 nM | 1 nM | 10 nM | 100 nM | 1000 nM
DERL-7 (IL-2 2.5 ng/mL) [2] | -2.19 | -3.08 | 4.42 | 0.42 | 18.3
IMC-1 (IL-2 20 ng/mL) [3] | 1.36 | 2.7 | 8 | 5.82 | 6.35
KAI3 (IL-2 2.5 ng/mL) [4] | 0.26 | -1.15 | 7.26 | 4.08 | 33.3
KHYG-1 (IL-2 2.5 ng/mL) [5] | -3.32 | 3.62 | 8.53 | 3.55 | 16.2
NK-92 (IL-2 2.5 ng/mL) [6] | -8.37 | -0.57 | 6.98 | -18.1 | -10.1
NK-YS (IL-2 2.5 ng/mL) [7] | -4.76 | 0.81 | 3.08 | 0.21 | 23.1
NKL (IL-2 2.5 ng/mL) [8] | -5.13 | -8.13 | 11.5 | 13 | 49.2
SNK-6 (IL-2 2.5 ng/mL) [9] | -7.56 | 5.32 | 3.77 | 17.8 | 36.8
YT (IL-2 2.5 ng/mL) [10] | -1.34 | 0.79 | 6.32 | -2.16 | 11.8
[1] | 2.78 | -2.04 | 0.04 | 9.24 | 31.4
[11] | -2.92 | -1.19 | -3.79 | -5.46 | 7.88
[12] | -13.2 | -3.44 | -0.59 | -21.9 | -26.6
[13] | -2.37 | -3.09 | -7.97 | 98.9 | 20
[14] | -9.03 | -10.1 | -13.7 | 0.83 | 6.87

Settings | drug sensitivity score
DERL-7 (IL-2 2.5 ng/mL) [16] | 0.51
IMC-1 (IL-2 20 ng/mL) [17] | 0
KAI3 (IL-2 2.5 ng/mL) [18] | 2.21
KHYG-1 (IL-2 2.5 ng/mL) [19] | 0.25
NK-92 (IL-2 2.5 ng/mL) [20] | 0
NK-YS (IL-2 2.5 ng/mL) [21] | 0.85
NKL (IL-2 2.5 ng/mL) [22] | 4.11
SNK-6 (IL-2 2.5 ng/mL) [23] | 3.55
YT (IL-2 2.5 ng/mL) [24] | 0.01
[15] | 2.75
[25] | 0
[26] | 0
[27] | 7.86
[28] | 0
